The values that follow come from ChEMBL document CHEMBL3621185, “Progress in the development of fatty acid synthase inhibitors as anticancer targets” (Bioorg Med Chem Lett, 2015).

Structures are written as SMILES.

Test [1] is described as follows: Cytotoxicity against human MCF10A cells. The test is classed as functional, cell-based. The conditions noted are these: MCF-10A.
The target of test [2] is T1, Fatty acid synthase (Homo sapiens, UniProt P49327). The test can be described thus: Inhibition of fatty acid synthase (unknown origin).
The nature of test [3]: Cytotoxicity against human PC-3M-luc-C6 cells. The test is classed as functional, cell-based.
The target in test [4] is T1, Fatty acid synthase. The test can be described thus: Inhibition of fatty acid synthase KR domain (unknown origin).
In a further test the test system is A2780. The test can be described thus: Cytotoxicity against human A2780 cells. The test is classed as functional, cell-based.

T1 sequence (P49327 whole entry): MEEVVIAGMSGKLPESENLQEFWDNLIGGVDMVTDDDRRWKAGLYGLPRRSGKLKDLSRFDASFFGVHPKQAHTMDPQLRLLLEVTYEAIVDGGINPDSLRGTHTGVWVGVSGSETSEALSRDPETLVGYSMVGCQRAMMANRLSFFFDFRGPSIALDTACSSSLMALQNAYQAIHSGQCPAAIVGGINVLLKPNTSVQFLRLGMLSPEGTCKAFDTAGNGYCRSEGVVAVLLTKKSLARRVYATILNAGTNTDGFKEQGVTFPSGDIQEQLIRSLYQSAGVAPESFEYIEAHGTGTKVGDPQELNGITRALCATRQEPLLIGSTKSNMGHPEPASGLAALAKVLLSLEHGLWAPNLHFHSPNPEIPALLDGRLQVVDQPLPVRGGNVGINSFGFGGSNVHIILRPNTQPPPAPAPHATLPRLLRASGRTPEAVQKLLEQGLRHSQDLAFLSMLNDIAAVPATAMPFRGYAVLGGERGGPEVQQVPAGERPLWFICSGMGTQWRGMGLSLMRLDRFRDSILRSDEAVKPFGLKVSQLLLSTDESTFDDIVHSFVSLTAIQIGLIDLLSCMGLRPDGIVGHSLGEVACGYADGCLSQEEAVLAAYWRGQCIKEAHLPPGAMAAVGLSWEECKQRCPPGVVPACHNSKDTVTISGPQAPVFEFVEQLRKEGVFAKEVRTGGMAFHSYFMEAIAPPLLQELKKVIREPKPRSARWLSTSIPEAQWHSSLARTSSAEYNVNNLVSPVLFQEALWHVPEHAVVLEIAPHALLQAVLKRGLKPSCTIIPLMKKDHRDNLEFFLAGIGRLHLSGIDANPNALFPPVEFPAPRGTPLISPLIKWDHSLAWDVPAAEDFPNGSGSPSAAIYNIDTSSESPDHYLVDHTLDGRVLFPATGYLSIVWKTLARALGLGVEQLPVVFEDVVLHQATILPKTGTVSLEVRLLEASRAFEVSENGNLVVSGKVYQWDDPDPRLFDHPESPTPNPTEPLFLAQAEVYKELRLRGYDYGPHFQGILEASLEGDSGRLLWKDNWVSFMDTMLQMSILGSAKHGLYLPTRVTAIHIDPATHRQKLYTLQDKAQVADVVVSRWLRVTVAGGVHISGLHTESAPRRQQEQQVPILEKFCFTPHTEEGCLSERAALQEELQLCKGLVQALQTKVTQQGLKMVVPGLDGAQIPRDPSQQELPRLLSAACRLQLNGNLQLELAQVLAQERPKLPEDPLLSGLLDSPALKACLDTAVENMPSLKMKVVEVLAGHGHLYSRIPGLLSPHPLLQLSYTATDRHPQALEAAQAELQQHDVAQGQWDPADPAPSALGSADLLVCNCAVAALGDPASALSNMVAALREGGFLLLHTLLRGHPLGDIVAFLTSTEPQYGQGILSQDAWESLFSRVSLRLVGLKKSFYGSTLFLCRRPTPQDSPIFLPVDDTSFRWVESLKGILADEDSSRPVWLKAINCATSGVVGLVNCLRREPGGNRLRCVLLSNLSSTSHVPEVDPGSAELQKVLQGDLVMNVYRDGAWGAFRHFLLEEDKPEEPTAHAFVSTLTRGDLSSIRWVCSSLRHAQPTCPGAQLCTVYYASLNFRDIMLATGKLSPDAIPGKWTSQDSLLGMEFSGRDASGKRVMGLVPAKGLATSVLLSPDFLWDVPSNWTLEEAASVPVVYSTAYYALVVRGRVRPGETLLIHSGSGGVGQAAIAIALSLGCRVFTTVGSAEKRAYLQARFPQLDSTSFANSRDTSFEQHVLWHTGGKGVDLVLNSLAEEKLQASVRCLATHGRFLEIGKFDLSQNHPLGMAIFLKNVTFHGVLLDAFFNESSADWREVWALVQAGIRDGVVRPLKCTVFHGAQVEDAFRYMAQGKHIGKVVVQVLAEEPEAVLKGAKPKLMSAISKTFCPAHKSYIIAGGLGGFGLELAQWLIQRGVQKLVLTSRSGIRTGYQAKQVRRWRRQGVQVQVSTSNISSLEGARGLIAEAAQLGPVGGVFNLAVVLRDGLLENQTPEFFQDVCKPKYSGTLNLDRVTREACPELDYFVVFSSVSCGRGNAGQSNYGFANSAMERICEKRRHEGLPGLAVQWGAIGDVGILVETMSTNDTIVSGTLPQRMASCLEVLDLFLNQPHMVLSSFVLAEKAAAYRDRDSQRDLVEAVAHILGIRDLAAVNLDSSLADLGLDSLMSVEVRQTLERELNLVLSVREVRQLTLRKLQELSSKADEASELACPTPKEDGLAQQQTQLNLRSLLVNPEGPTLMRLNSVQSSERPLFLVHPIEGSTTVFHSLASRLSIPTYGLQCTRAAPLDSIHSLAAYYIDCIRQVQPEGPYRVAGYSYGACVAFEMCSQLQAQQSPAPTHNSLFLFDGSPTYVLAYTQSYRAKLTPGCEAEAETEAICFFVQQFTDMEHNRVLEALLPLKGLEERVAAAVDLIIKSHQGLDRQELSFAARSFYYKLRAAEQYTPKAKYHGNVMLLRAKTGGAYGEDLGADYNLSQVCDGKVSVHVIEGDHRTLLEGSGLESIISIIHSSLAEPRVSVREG

`Cc1cc(C)cc(N2C(=O)NC(=O)/C(=C\c3ccc(-c4ccccc4)o3)C2=O)c1` showed an IC50 in test [1] of 24300 nM.

On to `CN(C[C@@H]1CCN(C(=O)C2CC2)C1)C(=O)c1ccc(-c2ccc3[nH]ccc3c2)cc1F`, for which half-maximal inhibition against Fatty acid synthase [2] (IC50) required 20 nM.

Molecule `O=C(C1CC1)N1CC[C@@H](Cc2n[nH]c(=O)n2-c2ccc(-c3ccc4ccncc4c3)cc2F)C1` came in with an IC50 against Fatty acid synthase [2] of 3 nM.

The molecule `O=C1COC2(CCN(S(=O)(=O)c3ccc(-c4cccc5cnccc45)cc3)CC2)CN1C1CC1` had an IC50 against Fatty acid synthase [2] of 6 nM.

The molecule `N#Cc1ccc2cc(N3CCN(S(=O)(=O)N4CCC5(CC4)CN(C4CC4)C(=O)CO5)CC3)ccc2c1` registered an IC50 on Fatty acid synthase [2] of 10 nM.

On to `CC1(C)N=C(c2ccc(-c3c[nH]c4ccccc34)cc2)N(C[C@@H]2CCN(C(=O)C3CC3)C2)C1=O`, for which the results for the IC50 (in test [3]; against Fatty acid synthase [4]; with A2780) were 8 nM, 41 nM and 3 nM, respectively.

Regarding `Cc1ccc(C(=O)N2CCC(c3ccc4nncn4c3)CC2)cc1NC(=O)c1ccc(Cl)nc1`, the IC50 was found to be 35 nM in test [3], 93 nM against Fatty acid synthase [4] and 41 nM in the test with A2780.

As for `O=C(C1CC1)N1CCC(Cn2cnnc2-c2ccc(-c3ccc4[nH]ncc4c3)cc2)C1` (single isomer, unassigned), half-maximal inhibition at Fatty acid synthase [2] (IC50) required 13 nM.
